Source: paper PMC5613016, “GRL-09510, a Unique P2-Crown-Tetrahydrofuranylurethane -Containing HIV-1 Protease Inhibitor, Maintains Its Favorable Antiviral Activity against Highly-Drug-Resistant HIV-1 Variants in vitro” (Scientific Reports, 2017)

Key:
Type in all cases: cell-based
HIV-1MDR/C = assay: p24 production inhibition in PHA-PBMC
Description: (§1) The susceptibility of HIV-1LAI or HIV-2ROD to various compounds was determined as previously described[20]–[22]. Briefly, MT-2 cells (10^4/ml) were exposed to 100 TCID50 of HIV-1LAI or HIV-2ROD in the presence or absence of various concentrations of compounds in 96-well plates and were incubated at 37 °C for 7 days. After incubation, 100 μl of the medium was removed from each well, 3-(4,5-dimetylthiazol-2-yl)-2,5-diphenyltetrazolium bromide (MTT) solution (10 μl, 7.5 mg/ml in PBS) was added to each well, followed by incubation at 37 °C for 2 h. […] To determine the sensitivity of clinically isolated HIV-1s to compounds, PHA-PBMC (10^6/ml) were exposed to 50 TCID50 of each HIV-1 and cultured in the presence or absence of various concentrations of compounds in 10-fold serial dilutions in 96-well plates. In determining the drug-susceptibility of certain laboratory HIV-1 strains, MT-4 cells were employed as target cells as previously described[23],[24]. MT-4 cells (10^5/ml) were exposed to 100 TCID50 of drug-resistant HIV-1s in the presence or absence of various concentrations of compounds and were incubated at 37 °C. On day 7, the supernatants were harvested and the amounts of p24 were determined by using a fully-automated chemiluminescent enzyme immunoassay system (Lumipulse f: Fujirebio, Tokyo)[35]–[37]. […] All assays were performed in duplicate, and EC50 shown in this report represent average values of two to four independent experiments. PHA-PBMCs were derived from a single donor in each independent experiment. The research protocols described in the present study were carried out in accordance with relevant guidelines and regulations, and were approved in Ethics Committee for Epidemiological and General Research at the Faculty of Life Sciences, Kumamoto University.

HIV-1MDR/B = assay: p24 production inhibition in PHA-PBMC
Description: as §1

HIV-1MDR/G = assay: p24 production inhibition in PHA-PBMC
Description: as §1

HIV-1MDRmix DRV ^R 20P = assay: p24 production inhibition in PHA-PBMC
Description: as §1

HIV-1MDR/TM = assay: p24 production inhibition in PHA-PBMC
Description: as §1

[1] = system: HIV-1ERS104pre (wild-type); assay: p24 production inhibition in PHA-PBMC; conditions: PHA-PBMC, p24 Gag production
Description: as §1

HIV-1ATV ^R 5μM = assay: p24 production inhibition in MT-4 cells
Description: as §1

HIV-1APV ^R 5μM = assay: p24 production inhibition in MT-4 cells
Description: as §1

HIV-1NL4-3 [2] = assay: p24 production inhibition in MT-4 cells; conditions: MT-4 cells, p24 Gag production, Table 3
Description: as §1

HIV-1LPV ^R 5μM = assay: p24 production inhibition in MT-4 cells
Description: as §1

HIV-1NL4-3 [3] = assay: In vitro selection of resistant HIV-1 variants in MT-4 cells; conditions: HIV-1NL4-3 in MT-4 cells, increasing concentrations
Source text: MT-4 cells (10^5/ml) were exposed to HIV-1NL4-3 (500 TCID50) and cultured in the presence of compounds at an initial concentration of its EC50 value. Viral replication was monitored by the determination of the amount of p24 produced by MT-4 cells. The supernatants were harvested on day 7 and were used to infect fresh MT-4 cells for the next round of culture in the presence of increasing concentrations of each compound. Proviral DNAs obtained from the lysates of infected cells were subjected to sequencing. This selection procedure was carried out until the drug concentration reached 5 μM as previously described[20]–[22]).

HIV-2ROD = assay: microbe, parasite or virus in culture
Description: as §1

HIV-1LAI = assay: microbe, parasite or virus in culture
Description: as §1

MT-2 cells = assay: Cytotoxicity against MT-2 cells (MTT assay)
Description: as §1

[4] = compared to EC50 for HIV-1ERS104pre
[5] = number in parentheses, compared to HIV-1NL4-3

COc1ccc(S(=O)(=O)N(CC(C)C)CC(O)C(Cc2ccccc2)NC(=O)OC2C3COC4OCC2C4C3)cc1 (stereo not drawn) [GRL-09610]
EC50 (HIV-1MDR/C; PHA-PBMC, p24 Gag production): 0.0049 ± 0.0018 µM
fold change of EC50 HIV-1MDR/C (HIV-1MDR/C; [4]): 2
EC50 (HIV-1MDR/B; PHA-PBMC, p24 Gag production): 0.0145 ± 0.0013 µM
fold change of EC50 HIV-1MDR/B (HIV-1MDR/B; [4]): 5
EC50 (HIV-1MDR/G; PHA-PBMC, p24 Gag production): 0.0158 ± 0.0133 µM
fold change of EC50 HIV-1MDR/G (HIV-1MDR/G; [4]): 5
fold change of EC50 HIV-1MDRmix DRV ^R 20P (HIV-1MDRmix DRV ^R 20P; [4]): 78
EC50 (HIV-1MDRmix DRV ^R 20P; read-out: EC50 HIV-1MDRmix DRV ^R 20P, PHA-PBMC, p24 Gag production): 0.25 ± 0.03 µM
EC50 (HIV-1MDR/TM; PHA-PBMC, p24 Gag production): 0.0289 ± 0.0016 µM
fold change of EC50 HIV-1MDR/TM (HIV-1MDR/TM; [4]): 9
EC50 [1]: 0.0032 ± 0.0002 µM
fold change of EC50 HIV-1ATV ^R 5μM (HIV-1ATV ^R 5μM; [5]): 11
EC50 (HIV-1ATV ^R 5μM; read-out: EC50 HIV-1ATV ^R 5μM, MT-4 cells, p24 Gag production): 0.0354 ± 0.0008 µM
fold change of EC50 HIV-1APV ^R 5μM (HIV-1APV ^R 5μM; [5]): 97
EC50 (HIV-1APV ^R 5μM; read-out: EC50 HIV-1APV ^R 5μM, MT-4 cells, p24 Gag production): 0.31 ± 0.09 µM
EC50 (HIV-1NL4-3 [2]): 0.0032 ± 0.0002 µM
fold change of EC50 HIV-1LPV ^R 5μM (HIV-1LPV ^R 5μM; [5]): 10
EC50 (HIV-1LPV ^R 5μM; read-out: EC50 HIV-1LPV ^R 5μM, MT-4 cells, p24 Gag production): 0.032 ± 0.001 µM
passage at which selection concentration reached 5 µM (HIV-1NL4-3 [3]): ~43
EC50 (HIV-2ROD; MT-2 cells, 100 TCID50, MTT assay, read-out: EC50 Against HIV-2ROD): 0.015 ± 0.009 µM
Selectivity Index (CC50/EC50) MT2/HIV-2ROD (HIV-2ROD; ratio of CC50 to EC50 against HIV-2ROD): 2,207
EC50 (HIV-1LAI; MT-2 cells, 100 TCID50, MTT assay, read-out: EC50 Against HIV-1LAI): 0.0023 ± 0.0007 µM
Selectivity Index (CC50/EC50) MT2/HIV-1LAI (HIV-1LAI; ratio of CC50 to EC50 against HIV-1LAI): 14,391
CC50 (MT-2 cells): 33.1 ± 1 µM
